Data reported in patent US20170217946A1, “AMINO-SUBSTITUTED ISOXAZOLES” (Bayer Pharma Aktiengesellschaft, priority 2014, published 2017).

Columns and labels:
human Bub1 = target: T1, human Bub1 (Homo sapiens, UniProt O43683); assay: Bub1 kinase assay (TR-FRET); assay type: biochemical; settings: 10 μM ATP
T1 construct: catalytic domain of human Bub1 (amino acids 704-1085); His6 (N); made in house; host or cells: insect cells (Hi5)
Text: Bub1-inhibitory activity of compounds of the present invention was quantified employing the Bub1 TR-FRET assay as described in the following paragraphs.
N-terminally His6-tagged recombinant catalytic domain of human Bub1 (amino acids 704-1085), expressed in insect cells (Hi5) and purified by Ni-NTA affinity chromatography and subsequent size exclusion chromatography, was used as enzyme. As substrate for the kinase reaction the biotinylated peptide biotin-Ahx-VLLPKKSFAEPG (C-terminus in amid form) was used which can be purchased e.g. form the company Biosyntan (Berlin, Germany).
For the assay 50 nl of a 100 fold concentrated solution of the test compound in DMSO was pipetted into a black low volume 384 well microtiter plate (Greiner Bio-One, Frickenhausen, Germany), 2 μl of a solution of Bub1 in aqueous assay buffer [50 mM Tris/HCl pH 7.5, 10 mM magnesium chloride (MgCl2), 200 mM potassium chloride (KCl), 1.0 mM dithiothreitol (DTT), 0.1 mM sodium ortho-vanadate, 1% (v/v) glycerol, 0.01% (w/v) bovine serum albumine (BSA), 0.005% (v/v) Trition X-100 (Sigma), 1× Complete EDTA-free protease inhibitor mixture (Roche)] were added and the mixture was incubated for 15 min at 22° C. to allow pre-binding of the test compounds to the enzyme before the start of the kinase reaction. Then the kinase reaction was started by the addition of 3 μl of a solution of adenosine-tri-phosphate (ATP, 16.7 μM=>final conc. in the 5 μl assay volume is 10 μM) and substrate (1.67 μM=>final conc. in the 5 μl assay volume is 1 μM) in assay buffer and the resulting mixture was incubated for a reaction time of 60 min at 22° C. The concentration of Bub1 was adjusted depending of the activity of the enzyme lot and was chosen appropriate to have the assay in the linear range, typical concentrations were in the range of 200 ng/ml. The reaction was stopped by the addition of 5 μl of a solution of TR-FRET detection reagents (0.2 μM streptavidine-XL665 [Cisbio Bioassays, Codolet, France] and 1 nM anti-phosho-Serine antibody [Merck Millipore, cat. #35-001] and 0.4 nM LANCE EU-W1024 labeled anti-mouse IgG antibody [Perkin-Elmer, product no. AD0077, as an alternative a Terbium-cryptate-labeled anti-mouse IgG antibody from Cisbio Bioassays can be used]) in an aqueous EDTA-solution (50 mM EDTA, 0.2% (w/v) bovine serum albumin in 100 mM HEPES pH 7.5).
The resulting mixture was incubated 1 h at 22° C. to allow the formation of complex between the phosphorylated biotinylated peptide and the detection reagents. Subsequently the amount of phosphorylated substrate was evaluated by measurement of the resonance energy transfer from the Eu-chelate to the streptavidine-XL. Therefore, the fluorescence emissions at 620 nm and 665 nm after excitation at 350 nm was measured in a TR-FRET reader, e.g. a Rubystar or Pherastar (both from BMG Labtechnologies, Offenburg, Germany) or a Viewlux (Perkin-Elmer). The ratio of the emissions at 665 nm and at […] was taken as the measure for the amount of phosphorylated substrate. The data were normalised (enzyme reaction without inhibitor=0% inhibition, all other assay components but no enzyme=100% inhibition).

HeLa cells = assay: Proliferation assay (crystal violet); assay type: cell-based; settings: Homo sapiens, 96 h, 4 days incubation, read-out: Inhibition of proliferation HeLa IC50
Method: Cultivated tumor cells (cells were ordered from ATCC, except HeLa-MaTu and HeLa-MaTu-ADR, which were ordered from EPO-GmbH, Berlin) were plated at a density of 1000 to 5000 cells/well, depending on the growth rate of the respective cell line, in a 96-well multititer plate in 200 μL of their respective growth medium supplemented 10% fetal calf serum. After 24 hours, the cells of one plate (zero-point plate) were stained with crystal violet (see below), while the medium of the other plates was replaced by fresh culture medium (200 μl), to which the test substances were added in various concentrations (0 μM, as well as in the range of 0.001-10 μM; the final concentration of the solvent dimethyl sulfoxide was 0.5%). The cells were incubated for 4 days in the presence of test substances. Cell proliferation was determined by staining the cells with crystal violet: the cells were fixed by adding 20 μl/measuring point of an 11% glutaric aldehyde solution for 15 minutes at room temperature. After three washing cycles of the fixed cells with water, the plates were dried at room temperature. The cells were stained by adding 100 μl/measuring point of a 0.1% crystal violet solution (pH 3.0). After three washing cycles of the stained cells with water, the plates were dried at room temperature. The dye was dissolved by adding 100 μl/measuring point of a 10% acetic acid solution. Absorption was determined by photometry at a wavelength of 595 nm. The change of cell number, in percent, was calculated by normalization of the measured values to the absorption values of the zero-point plate (=0%) and the absorption of the untreated (0 μm) cells (=100%). The IC50 values were determined by means of a 4 parameter fit.

T1 sequence (O43683 704-1085): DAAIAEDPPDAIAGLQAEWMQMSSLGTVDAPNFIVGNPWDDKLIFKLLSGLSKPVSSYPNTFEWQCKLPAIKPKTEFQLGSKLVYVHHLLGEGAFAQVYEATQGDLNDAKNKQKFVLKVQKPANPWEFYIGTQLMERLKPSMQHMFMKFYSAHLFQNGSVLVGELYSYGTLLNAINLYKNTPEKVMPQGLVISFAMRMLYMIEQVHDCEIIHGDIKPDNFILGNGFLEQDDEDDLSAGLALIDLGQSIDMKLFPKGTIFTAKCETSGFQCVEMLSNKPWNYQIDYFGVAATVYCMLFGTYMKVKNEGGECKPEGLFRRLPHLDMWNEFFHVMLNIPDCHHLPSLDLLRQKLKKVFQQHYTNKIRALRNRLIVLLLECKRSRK

Compound | IC50 (human Bub1) [µM] | IC50 (HeLa cells) [µM]
Cc1noc(Nc2cnc(C(F)(F)F)cn2)c1C(=O)Nc1ccc(OC[C@H]2CCN(CCC(F)(F)F)C2)nc1 [Example 9a, 3-Methyl-5-{[5-(trifluoromethyl)pyrazin-2-yl]amino}-N-(6-{[(3S)-1-(3,3,3-trifluoro-propyl)pyrrolidin-3-yl]methoxy}pyridin-3-yl)-1,2-oxazole-4-carboxamide] | > 20 | 3.1
Cc1noc(Nc2cnc(C(F)(F)F)cn2)c1C(=O)Nc1ccc(OC[C@H]2CCN(CC(F)(F)F)C2)nc1 [Example 8a, 3-Methyl-N-(6-{[(3S)-1-(2,2,2-trifluoroethyl)pyrrolidin-3-yl]methoxy}pyridin-3-yl)-5-{[5-(trifluoromethyl)pyrazin-2-yl]amino}-1,2-oxazole-4-carboxamide] | > 20 | 1.9
COc1ccc(NC(=O)c2c(C)noc2Nc2cnc(C(F)(F)F)cn2)cn1 [Example 2c, N-(6-methoxypyridin-3-yl)-3-methyl-5-{[5-(trifluoromethyl)pyrazin-2-yl]amino}-1,2-oxazole-4-carboxamide] | > 20 | 2.7
Cc1noc(Nc2cnc(C(F)(F)F)cn2)c1C(=O)Nc1ccc(OC[C@H]2CCN(CC(F)F)C2)nc1 [Example 7a, N-(6-{[(3S)-1-(2,2-difluoroethyl)pyrrolidin-3-yl]methoxy}pyridin-3-yl)-3-methyl-5-{[5-(trifluoromethyl)pyrazin-2-yl]amino}-1,2-oxazole-4-carboxamide] | > 20 | 4

Second part, the molecule after the results:

IC50 (human Bub1) [µM] | IC50 (HeLa cells) [µM] | Compound
> 20 | 3.4 | Cc1noc(Nc2cnc(C(F)(F)F)cn2)c1C(=O)Nc1ccc(OC[C@@H]2CCN(CC(F)F)C2)nc1 [Example 3a, N-(6-{[(3R)-1-(2,2-difluoroethyl)pyrrolidin-3-yl]methoxy}pyridin-3-yl)-3-methyl-5-{[5-(trifluoromethyl)pyrazin-2-yl]amino}-1,2-oxazole-4-carboxamide]
> 20 | 2.8 | Cc1noc(Nc2cnc(C(F)(F)F)cn2)c1C(=O)Nc1ccc(OC[C@@H]2CCN(CC(F)(F)F)C2)nc1 [Example 4a, 3-Methyl-N-(6-{[(3R)-1-(2,2,2-trifluoroethyl)pyrrolidin-3-yl]methoxy}pyridin-3-yl)-5-{[5-(trifluoromethyl)pyrazin-2-yl]amino}-1,2-oxazole-4-carboxamide]
> 20 | 3.3 | Cc1noc(Nc2cnc(C(F)(F)F)cn2)c1C(=O)Nc1ccc(OC[C@@H]2CCN(CCC(F)(F)F)C2)nc1 [Example 5a, 3-Methyl-5-{[5-(trifluoromethyl)pyrazin-2-yl]amino}-N-(6-{[(3R)-1-(3,3,3-trifluoro-propyl)pyrrolidin-3-yl]methoxy}pyridin-3-yl)-1,2-oxazole-4-carboxamide]
